Here are results for two molecules from patent US20090099169A1, “Benzofuran Compounds As EP1 Receptor Antagonists” (GLAXO GROUP LIMITED, priority 2006, published 2009).

The target of this test is T1, human EP3 receptor (Homo sapiens, UniProt P43115).
T1 construct: expressed in transfected cells; host or cells: CHO-K1
T1 sequence (P43115 1-390): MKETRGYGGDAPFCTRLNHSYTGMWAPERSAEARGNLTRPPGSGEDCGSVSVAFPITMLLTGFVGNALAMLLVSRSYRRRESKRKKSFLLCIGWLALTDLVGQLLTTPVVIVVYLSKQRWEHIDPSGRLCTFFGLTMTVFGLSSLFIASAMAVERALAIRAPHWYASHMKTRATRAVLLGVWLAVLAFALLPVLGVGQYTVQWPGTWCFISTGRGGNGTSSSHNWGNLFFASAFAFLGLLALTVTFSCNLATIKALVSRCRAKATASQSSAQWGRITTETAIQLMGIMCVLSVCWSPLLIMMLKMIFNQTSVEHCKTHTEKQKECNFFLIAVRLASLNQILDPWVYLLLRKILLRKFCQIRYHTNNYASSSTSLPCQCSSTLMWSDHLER
Put plainly: human EP3 calcium mobilisation assay. The conditions noted are these: CHO-K1 cells, antagonism of PGE2; averages of a number of experiments; read-out: functional pKi value (human EP3 calcium mobilisation assay) (converted). In kind it is cell-based. A digest of the protocol:
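CHO-K1 cells stably transfected with human EP1 or EP3, loaded with Fluo-4 after 24 h culture, treated with compound, then challenged with PGE2. Calcium-driven fluorescence read on FLIPR; pIC50 is half-maximal inhibition of PGE2-induced calcium mobilisation, from curve fitting.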
(In general: Calcium flux is commonly read through the fluorescence of an indicator in the cells.)

Take `CC(C)c1cc2cc(Cl)cc(Cc3ccc(C(=O)O)o3)c2o1` [Example 1, 5-{[5-Chloro-2-(1-methylethyl)-1-benzofuran-7-yl]methyl}-2-furancarboxylic Acid]: the Ki was 0.501 to 10 µM.

Turning to `Cc1cc(C(=O)O)nn1Cc1cc(Cl)cc2cc(C(C)C)oc12` [Example 3, 1-{[5-Chloro-2-(1-methylethyl)-1-benzofuran-7-yl]methyl}-5-methyl-1H-pyrazole-3-carboxylic Acid], the Ki was 0.501 to 10 µM.
